Measurements as given in US8203033B2, “Methods and compositions for providing tolerance to multiple herbicides” (Pioneer Hi-Bred International, Inc., priority 2005, dated 2012).

How the values were obtained:
[1] = tested on: GAT-HRA transgenic cotton plants; test: Greenhouse over-the-top herbicide spray of cotton; type: in vivo, Gossypium hirsutum
Description: (§1) Cotton (Gossypium hirsutum) Coker 312 was transformed with a GAT polynucleotide (gat 4621) together with an Hra polynucleotide (SEQ ID NO:86) both operably linked to strong, constitutive plant viral promoters. The promoter linked to gat4621 contains a duplicated portion of the Strawberry Vein Banding Virus transcript promoter (Wang et al. Virus Genes 20: 11-17, 2000; Genbank X97304). The Hra gene was driven by a duplicated portion of the Mirabilis Mosaic Caulimovirus full-length transcript promoter (U.S. Pat. No. 6,420,547; Dey and Maiti, Transgenics 3:61-70, 1999). The transformation procedure used Agrobacterium tumefaciens containing an expression cassette with the genes to be transferred and cotyledon explant derived callus with some capacity to undergo embryogenesis. The callus was exposed to Agrobacterium for 48-72 hours. The callus was then exposed to selection for transformed cells on 50-200 μg/l chlorosulfuron and/or 50-450 μM glyphosate in solid medium. Glyphosate can also be used in a concentration range of about 5 to about 450 μM. Selection was applied until somatic embryos formed, and selection was again applied at the embryo germination step, and optionally during rooting of plantlets. Over 450 GAT-HRA transformation events were produced using selection with both chlorsulfuron and glyphosate.
(§2) Transformed cotton plants were rooted and then transferred to soil for further growth. Plants were then subjected to herbicide spray treatments in a greenhouse. […] Untransformed Coker 312 control plants were dead 2 weeks after glyphosate application. […] Plants transformed with both GAT and HRA were further subjected to an “over the top” application of the sulfonylurea herbicide rimsulfuron at a rate of 16 g active ingredient/hectare. […] In further experiments 32 g ai/ha rimsulfuron were applied to the cotton.

[2] = tested on: Untransformed Coker 312 control plants; test: Greenhouse over-the-top herbicide spray of cotton; type: in vivo, Gossypium hirsutum
Description: as §1, §2

[3] = tested on: parent elite stiff stalk inbred corn; test: Postemergence test of herbicides on corn (fresh weight, visual injury); type: in vivo; conditions: 3472 g ae/ha
[4] = tested on: Heterozygous GAT-HRA corn; test: as above; type: in vivo; conditions: 3472 g ae/ha
[5] = tested on: non-transformed GS3 embryos; test: Glyphosate kill curve; type: cell-based, maize; conditions: about 40 days culture
Description: A glyphosate kill curve was established by testing non-transformed embryos response on media with different levels of glyphosate. GS3 embryos were isolated from an immature ear and placed onto media containing glyphosate at 0.0, 0.5, 1.0, and 2.0 mM. After about 40 days culture, the response of the embryos were observed and recorded. Similarly, infected GS3 embryos with the GAT construct were placed onto media containing glyphosate at 0.0, 0.5, 1.0, and 2.0 mM. After about 40 days culture, the response of the infected embryos were observed and recorded (FIG. 7).
Western or PCR analysis has confirmed that these resistant calli were transformed. Currently, GAT has performed consistently as an effective selectable marker with excellent transformation efficiency in both GS3 and introEF09B genotypes (FIG. 10 and Table 45).

[6] = tested on: non-glyphosate resistant ryegrass (70-04); test: Glyphosate, metsulfuron-methyl and two additives on the control of ryegrass; type: in vivo; conditions: 0.5 L ha^−1 glyphosate (SCAT)
Description: The example was conducted on non-glyphosate resistant ryegrass. As provided in Table 23, all treatments that included glyphosate [180 g a.i. L ha^−1 (0.5 L glyphosate (SCAT®))] plus metsulfuron-methyl (BRUSH-OFF®) (5 and 10 g ha^−1) gave 100% control of the ryegrass.

[7] = tested on: Hairy Fleabane (Conyza bonariensis); test: Glyphosate, metsulfuron-methyl and two additives on the control of hairy fleabane; type: in vivo; conditions: glyphosate on its own; 10-15 leaf stage
Description: This example included the same treatments as used in Example 11, except the treatments were carried out on a glyphosate sensitive biotype of Kleinskraalhans (Conyza bonariensis).

GAT-HRA soybeans = test: Postemergence herbicide spray of soybeans, visual injury; type: in vivo; conditions: 35 g/ha
Description: (§3) Young regenerated transgenic plants were sprayed with 1× glyphosate (1× rate of glyphosate is 1120 g/ha of glyphosate isopropylamine) to cull segregants. Four replications were performed for each treatment. Plants were then treated with various herbicides, including glyphosate and ALS-inhibitor herbicides.
(§4) Six soybean seeds from each variety to be assayed were planted 1 cm deep in 5.5 (13.97 cm) inch square plastic container of a synthetic growth medium. […] When possible, containers were thinned to two uniform plants. Non-transgenic lines were thinned to two uniform plants per container.
(§5) Results are expressed below in Table 11 as the mean of four replications.

[8] = tested on: non-transgenic control soybeans; test: as above; type: in vivo; conditions: 35 g/ha
Description: as §3, §4, §5

Q: Which results are given for CCS(=O)(=O)c1cccnc1S(=O)(=O)NC(=O)Nc1nc(OC)cc(OC)n1 [Rimsulfuron, N-[[(4,6-dimethoxy-2-pyrimidinyl)amino]carbonyl]-3-(ethylsulfonyl)-2-pyridinesulfonamide]?
A: transgenic plants that showed no deleterious symptoms from the dual herbicide application ([1]; rimsulfuron 16 g active ingredient/hectare after glyphosate 1.5 lb ae/acre, 14 days after rimsulfuron, 28 days after glyphosate): approximately 35%; damage of untransformed plants ([2]; 16 g active ingredient/hectare, in the absence of any glyphosate application): severe damage

Q: With O=C(O)CNCP(=O)(O)O [Glyphosate, N-phosphonomethylglycine] as the molecule, how does the “% Visual Injury” value [3] read?
A: Its value is 100%.

Q: What about the “Fresh Weight” value ([3]; 2 weeks after treatment) of the same molecule?
A: Its value is 1.0 g.

Q: And the “% Visual Injury” value [4]?
A: The value was 10%.

Q: What about the “GAT-HRA transgenic plants that showed no deleterious symptoms” value ([1]; 1.5 lb acid equivalent per acre, 4-6 leaf stage, 14 days after application) of the same molecule?
A: The value was “approximately 50%”.

Q: What about the “state of control plants after application” value ([2]; 1.5 lb acid equivalent per acre, 4-6 leaf stage, 2 weeks after application) of the same molecule?
A: The value was “dead”.

Q: And the “embryos that showed callus initiation” value ([5]; 0.5 mM glyphosate in medium)?
A: The value was “about half”.

Q: And the callus growth ([5]; 1.0 mM glyphosate in medium)?
A: Its callus growth is “very little callus growth”.

Q: What about the callus growth ([5]; 2.0 mM glyphosate in medium) of the same molecule?
A: The callus growth was “very little callus growth”.

Q: And the “percentage printed with the plants that died” value [6]?
A: The value was 12%.

Q: What about the “plants that eventually died” value [6] of the same molecule?
A: Its value is 15 of the 16.

Q: And the “percentage printed with the plants killed” value [7]?
A: Its value is 12%.

Q: Which results are given for COC(=O)c1ccccc1S(=O)(=O)NC(=O)N(C)c1nc(C)nc(OC)n1 [Tribenuron-methyl, methyl 2-[[[[N-(4-methoxy-6-methyl-1,3,5-triazin-2-yl)-N-methylamino]carbonyl]-amino]sulfonyl]benzoate]?
A: damage of GAT- and HRA-containing transgenic soybeans (GAT-HRA soybeans): no significant damage; effect on non-transgenic control soybeans [8]: killed
